Reference: patent US9409905B2, “Antibacterial compounds and methods for use” (PTC THERAPEUTICS, INC., priority 2011, dated 2016)
Converted amounts (≈) assume the structure as drawn.

Tests used:
[1] = system: K. pneumoniae MXX1232; assay: Antibacterial activity, MIC, resistant strain (Table 4); type: cell-based; conditions: Klebsiella pneumoniae, MXX1232; resistant K. pneumoniae MMX1232, multi-drug resistant clinical isolate; read-out: MIC, MMX1232
Outline: (§1)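 The resistant panel comprises multi-drug resistant clinical isolates. All strains were tested by microbroth dilution, with the MIC in μg/mL taken as the lowest concentration that prevented macroscopically visible growth.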

[2] = system: A. baumannii MXX2240; assay: as above; type: cell-based; conditions: Acinetobacter baumannii, MXX2240; resistant A. baumannii MMX2240, multi-drug resistant clinical isolate; read-out: MIC, MMX2240
Outline: as §1

[3] = system: Haemophilus influenzae (H. influenzae) 49247; assay: Antibacterial activity, MIC (Table 6); type: cell-based
Outline: (§2)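 Broth microdilution; MIC (μg/mL) = lowest concentration with no macroscopically visible growth.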

[4] = system: Neisseria meningitidis (N. meningitidis) 13090; assay: Antibacterial activity, MIC (Table 8); type: cell-based
Outline: as §2

[5] = system: E. coli ELZ4000; assay: Antibacterial activity, MIC, multi-drug resistant clinical isolate (Table 3); type: cell-based; conditions: Escherichia coli, ELZ4000, read-out: MIC ELZ4000
Outline: (§3)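 Compounds were serially diluted in broth microdilution format and growth was scored visually; the MIC is the lowest concentration at which no macroscopically visible growth occurred, expressed in μg/mL.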

[6] = system: E. coli ELZ4251; assay: as above; type: cell-based; conditions: Escherichia coli
Outline: as §3

[7] = system: Acinetobacter baumannii (A. baumannii) BAA747; assay: Antibacterial activity, MIC (Table 4); type: cell-based; conditions: A. baumannii BAA747, read-out: MIC, BAA747
Outline: as §1

[8] = system: Klebsiella pneumoniae (K. pneumoniae) 35657; assay: Antibacterial activity, MIC (Table 4); type: cell-based; conditions: K. pneumoniae 35657, read-out: MIC, 35657
Outline: as §1

[9] = system: Pseudomonas aeruginosa (P. aeruginosa) 27853; assay: Antibacterial activity, MIC (Table 5); type: cell-based; conditions: P. aeruginosa 27853, read-out: MIC, 27853
Outline: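 Values are MICs in μg/mL, read as the lowest concentration at which no growth is visible by eye. They were determined by a microbroth dilution method.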

[10] = system: E. coli LZ3111; assay: Antibacterial activity, MIC, quinolone resistant strain (Table 2); type: cell-based; conditions: Escherichia coli, LZ3111, read-out: MIC LZ3111
Outline: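 MIC values (μg/mL) came from a microbroth dilution assay, scored as the lowest drug concentration at which no growth was visible by eye.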

[11] = system: Moraxella catarrhalis (M. catarrhalis) 25238; assay: Antibacterial activity, MIC (Table 7); type: cell-based
Outline: as §2

[12] = system: E. coli 25922; assay: Antibacterial activity, microbroth dilution MIC (Table 1); type: cell-based, Escherichia coli; conditions: Escherichia coli; microbroth dilution; control Gram-negative E. coli 25922 strain; read-out: MIC, 25922
Outline: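 Broth microdilution against S. aureus 29213, E. coli 25922 and hypersensitive E. coli BAS849. MIC in μg/mL is the lowest drug concentration preventing macroscopically visible growth under test conditions.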

[13] = system: Staphylococcus aureus (S. aureus) 29213; assay: as above; type: cell-based; conditions: microbroth dilution, Gram-positive S. aureus 29213, read-out: MIC, 29213
Outline: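 Lowest concentration stopping macroscopically visible growth under test conditions, by broth microdilution, defines the MIC (μg/mL).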

[14] = system: Escherichia coli (E. coli) BAS849; assay: as above; type: cell-based; conditions: microbroth dilution, super sensitive Gram-negative E. coli BAS849, read-out: MIC, BAS849
Outline: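 Microbroth dilution was used. MIC, in μg/mL, is the lowest drug concentration preventing macroscopically visible growth under the test conditions.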

Structure (SMILES) | MIC [1] [µg/mL] | MIC [2] [µg/mL] | MIC [3] [µg/mL] | MIC [4] [µg/mL] | MIC [5] [µg/mL] | MIC [6] [µg/mL] | MIC [7] [µg/mL] | MIC [8] [µg/mL] | MIC [9] [µg/mL] | MIC [10] [µg/mL] | MIC [11] [µg/mL] | MIC [12] [µg/mL] | MIC [13] [µg/mL] | MIC [14] [µg/mL]
CCc1c(-c2ccc3c(c2)cc(CNC(C)C)n3C)[nH]c(=O)c(C(=O)O)c1O [Cpd 199, 5-ethyl-4-hydroxy-6-(2-((isopropylamino)methyl)-1-methyl-1H-indol-5-yl)-2-oxo-1,2-dihydropyridine-3-carboxylic acid] | 12.5 to 150 (≈ 32.6 to 391 µM) | 1 to 3.5 (≈ 2.61 to 9.13 µM) | < 1 | < 1 | 3.5 to 12.5 (≈ 9.13 to 32.6 µM) | 3.5 to 12.5 (≈ 9.13 to 32.6 µM) | < 1 | < 1 | 3.5 to 12.5 (≈ 9.13 to 32.6 µM) | 1 to 3.5 (≈ 2.61 to 9.13 µM) | < 1 | < 1 | 3.5 to 12.5 (≈ 9.13 to 32.6 µM) | < 1
CCc1c(-c2ccc3c(c2)cc(CN2CCC(N(C)C)C2)n3C)[nH]c(=O)c(C(=O)O)c1O (stereo not shown) [Cpd 200, 6-(2-((3-(dimethylamino)pyrrolidin-1-yl)methyl)-1-methyl-1H-indol-5-yl)-5-ethyl-4-hydroxy-2-oxo-1,2-dihydropyridine-3-carboxylic acid] | 12.5 to 150 (≈ 28.5 to 342 µM) | 12.5 to 150 (≈ 28.5 to 342 µM) | 1 to 3.5 (≈ 2.28 to 7.98 µM) | < 1 | 12.5 to 150 (≈ 28.5 to 342 µM) | 12.5 to 150 (≈ 28.5 to 342 µM) | 3.5 to 12.5 (≈ 7.98 to 28.5 µM) | 12.5 to 150 (≈ 28.5 to 342 µM) | 12.5 to 150 (≈ 28.5 to 342 µM) | 1 to 3.5 (≈ 2.28 to 7.98 µM) | 1 to 3.5 (≈ 2.28 to 7.98 µM) | 1 to 3.5 (≈ 2.28 to 7.98 µM) | 3.5 to 12.5 (≈ 7.98 to 28.5 µM) | < 1
CCc1c(-c2ccc3c(c2)cc(CNCCF)n3C)[nH]c(=O)c(C(=O)O)c1O [Cpd 201, 5-ethyl-6-(2-((2-fluoroethylamino)methyl)-1-methyl-1H-indol-5-yl)-4-hydroxy-2-oxo-1,2-dihydropyridine-3-carboxylic acid] | 12.5 to 150 (≈ 32.3 to 387 µM) | 3.5 to 12.5 (≈ 9.03 to 32.3 µM) | < 1 | < 1 | 3.5 to 12.5 (≈ 9.03 to 32.3 µM) | 3.5 to 12.5 (≈ 9.03 to 32.3 µM) | < 1 | < 1 | 3.5 to 12.5 (≈ 9.03 to 32.3 µM) | 1 to 3.5 (≈ 2.58 to 9.03 µM) | < 1 | < 1 | 3.5 to 12.5 (≈ 9.03 to 32.3 µM) | < 1
CCc1c(-c2ccc3c(c2)cc(CN(C)C2CCC2)n3C)[nH]c(=O)c(C(=O)O)c1O.Cl [Cpd 209, 6-(2-((cyclobutyl(methyl)amino)methyl)-1-methyl-1H-indol-5-yl)-5-ethyl-4-hydroxy-2-oxo-1,2-dihydropyridine-3-carboxylic acid hydrochloride] | 12.5 to 150 | 3.5 to 12.5 | < 1 | < 1 | 12.5 to 150 | 12.5 to 150 | 1 to 3.5 | 1 to 3.5 | 12.5 to 150 | 3.5 to 12.5 | < 1 | < 1 | 3.5 to 12.5 | < 1
CCc1c(-c2ccc3c(c2)cc(CN(C)CC2CC2)n3C)[nH]c(=O)c(C(=O)O)c1O.Cl [Cpd 210, 6-(2-(((cyclopropylmethyl)(methyl)amino)methyl)-1-methyl-1H-indol-5-yl)-5-ethyl-4-hydroxy-2-oxo-1,2-dihydropyridine-3-carboxylic acid hydrochloride] | 12.5 to 150 | 12.5 to 150 | 1 to 3.5 | < 1 | 12.5 to 150 | 3.5 to 12.5 | 1 to 3.5 | 3.5 to 12.5 | 12.5 to 150 | 3.5 to 12.5 | < 1 | < 1 | 3.5 to 12.5 | < 1
CCc1c(-c2ccc3c(c2)cc(CNCC2CC2)n3C)[nH]c(=O)c(C(=O)O)c1O.Cl [Cpd 223, 6-(2-((cyclopropylmethylamino)methyl)-1-methyl-1H-indol-5-yl)-5-ethyl-4-hydroxy-2-oxo-1,2-dihydropyridine-3-carboxylic acid hydrochloride] | 12.5 to 150 | 1 to 3.5 | < 1 | < 1 | 3.5 to 12.5 | 12.5 to 150 | < 1 | 3.5 to 12.5 | 3.5 to 12.5 | 1 to 3.5 | < 1 | < 1 | 3.5 to 12.5 | < 1
CCc1c(-c2ccc3c(c2)cc(CNC2CC2)n3C)[nH]c(=O)c(C(=O)O)c1O.Cl [Cpd 228, 6-(2-((cyclopropylamino)methyl)-1-methyl-1H-indol-5-yl)-5-ethyl-4-hydroxy-2-oxo-1,2-dihydropyridine-3-carboxylic acid hydrochloride] | 12.5 to 150 | 1 to 3.5 | < 1 | < 1 | 3.5 to 12.5 | 1 to 3.5 | < 1 | 1 to 3.5 | 3.5 to 12.5 | 1 to 3.5 | < 1 | < 1 | 3.5 to 12.5 | < 1
CCc1c(-c2ccc3c(c2)cc(CNC2CCCC2)n3C)[nH]c(=O)c(C(=O)O)c1O.Cl [Cpd 229, 6-(2-((cyclopentylamino)methyl)-1-methyl-1H-indol-5-yl)-5-ethyl-4-hydroxy-2-oxo-1,2-dihydropyridine-3-carboxylic acid hydrochloride] | 12.5 to 150 | 1 to 3.5 | < 1 | < 1 | 12.5 to 150 | 3.5 to 12.5 | < 1 | < 1 | 3.5 to 12.5 | 3.5 to 12.5 | < 1 | < 1 | 3.5 to 12.5 | < 1
